This series is described as follows: Human HepG2 cell viability assay in 384 well format. The series is classed as toxicity, cell-based. Particulars: HepG2 cells, read-out: Inhibition. Further details: dose 125 nL, time 70.5 hour; concentration not given beside the values.

With `O=C(COCc1ccccc1Cl)N1CCN(c2ccc(Br)cn2)CC1`, the cytotoxicity at 70.5 h is -4.89%.
The same measure for `Cn1ncc2c1C(COCC1CC1)CN(S(=O)(=O)C1CC1)C2` (stereo unspecified): -4.08%.
The same measure for `Cn1ccc(C(=O)NC2CCC23CCN(C(=O)c2ccccn2)CC3)c1` (stereo unspecified): -4.01%.
As for `CN(C)C(=O)N1CCn2c(Cn3cccn3)cnc2C1`, the figure is 1.93%; as for `Cc1ccc(C(=O)N2CCc3c(COCC4CC4)cncc3C2)o1`, 18.4%; as for `Cc1cccc(C(=O)N2CCn3cc(CNC(=O)CC4CC4)nc3C2)n1`, -4.69%.
As to `COCCNC(=O)[C@H]1CN(c2ncccn2)C[C@H]2OCC[C@@H]12`, the cytotoxicity at 70.5 h was -15.6%.
As for `CN(C)C(=O)[C@H]1C[C@@H]2CN(S(=O)(=O)c3ccccc3)C[C@H]1O2`, the figure is -6.1%; as for `CN(C)C(=O)NC1COC2(CCN(Cc3ccc(N(C)C)cc3)CC2)C1` (stereo unspecified), -2.99%.
As for `Cc1ccc(N2C[C@H](C(=O)N3CCOCC3)[C@@H]3CCO[C@@H]3C2)nn1`, the figure is -11.3%; as for `CN(C)CC(=O)N1Cc2ncn(C)c2C(COCC2CCOCC2)C1` (stereo unspecified), -6.48%.
The same measure for `O=C1[C@H]2CN(Cc3ccoc3)C[C@@H]2CCN1Cc1cccnc1`: -8.89%.
In the case of `c1ccc(CCN2C[C@@H]3OCCN(c4ncccn4)[C@@H]3C2)cc1`, the cytotoxicity at 70.5 h is -9.92%.
For the compound `Cn1cc(Cl)cc1C(=O)N1CCC2(CCCN(CC3CCC3)C2=O)C1` (stereo unspecified), the cytotoxicity at 70.5 h stood at 18.1%.
The same measure for `Cc1cnccc1N1CCCN(C(=O)CCc2n[nH]c(C)c2C)CC1`: 18.7%; for `Cc1ccccc1[C@@H]1CN(CCOCCO)C[C@H]1C(=O)O`: -6.95%; for `CNc1nc2c(c(C(=O)N3CCCC3)n1)CN(C(=O)C1CCCC1)CC2`: 15.7%.
The same measure for `Cc1ccc(OCC2CCCN(CC3CCOCC3)C2)cc1` (stereo unspecified): 2.28%.
The same measure for `CCCc1cc(C(=O)N2CC(c3ccncc3)C2)ccn1`: 8.75%; for `Cc1cccnc1CN1CCN(C[C@]2(O)CCCN3CCCC[C@@H]32)CC1`: -6.65%; for `COCCC(=O)N1CCCC(CCC(=O)Nc2ccc(Cl)cc2)C1` (stereo unspecified): -6.03%.
In the case of `COc1ccc(N2CCN(C(=O)Cn3nc(C)c(C)c3C)C(C)C2)cc1` (stereo unspecified), the cytotoxicity at 70.5 h came out at 6.36%.
The same measure for `CN(Cc1cc(C2CC2)on1)C(=O)C(c1cccnc1)N1CCCC1` (stereo unspecified): -1.03%.
The same measure for `CCOC(=O)CNc1nc(COC)nc2c1cnn2C`: -4.25%.
Consider `COc1ccc(CCn2ccnc2-c2cc3n(n2)CCCNC3)cc1`, for which the cytotoxicity at 70.5 h is -10.7%.
As for `CC(C)=CCCC1(C)CCC(=O)N(CCNc2nc(C)cc(=O)[nH]2)C1` (stereo unspecified), the figure is -10.3%; as for `CCCn1c(C)c(CC(=O)NC(C)CO)c2c1CC(C)(C)CC2=O` (stereo unspecified), 9.89%.
As for `COCCc1noc(-c2cn(CCc3ccccc3)nn2)n1`, the figure is 2.44%; as for `CCCc1cc(=O)[nH]c(-c2cccc(CN3CCCCCC3)c2)n1`, 25.8%.
As for `Cc1occc1C(=O)N1CCc2c(CNc3ncccn3)cncc2C1`, the figure is -1.28%; as for `Cc1cc(CN2CCc3c(CNc4ncccn4)cncc3C2)oc1C`, -0.479%; as for `CO[C@H]1CCN(S(=O)(=O)c2cccs2)[C@H]1Cc1cccnc1`, 2.3%.
On to `CO[C@@H]1CCN(S(=O)(=O)c2cccs2)[C@H]1Cc1cccnc1`, for which the cytotoxicity at 70.5 h is -4.13%.
The same measure for `CC(C)OCc1ncn2c1CN(Cc1ccoc1)CCC2`: -11.8%.
As for `COCC(=O)N1C[C@H]2CN(Cc3csc(C)n3)C(=O)[C@H]2C1`, the figure is -8.09%.
For `CCS(=O)(=O)N1CCC2(CN(c3cccc(F)c3)C(=O)CN2C)C1` (stereo unspecified), the cytotoxicity at 70.5 h is -8.93%.
As for `Cc1noc([C@H]2C[C@H]3OCC[C@H]3N(Cc3cccs3)C2)n1`, the figure is -3.05%.
As for `O=C(Cc1ccccc1)N1Cc2nccn2CC(CN2CCCC2)C1` (stereo unspecified), the figure is -0.449%; as for `Cc1nc(CN2C[C@@H]3CN(C(=O)C4(C#N)CC4)C[C@@H]3C2=O)cs1`, -2.26%; as for `CN1CC(=O)N(c2cccc(F)c2)CC12CCN(S(=O)(=O)C1CC1)C2` (stereo unspecified), -2.84%.
As for `Cc1nc2c(c(NC3CC3)n1)CCN(C(=O)CCO)CC2`, the figure is -4.49%; as for `CN(C)C(=O)[C@H]1C[C@H]2OCC[C@H]2N(Cc2ccc(F)cc2)C1`, -7.16%; as for `O=C1CC[C@@H]2[C@@H](CCN2C(=O)c2ccsc2)N1Cc1ccncc1`, 0.223%.
With `O=C1CC(c2ccncc2)C2(CCN(C(=O)c3cccc(F)c3)CC2)N1` (stereo unspecified), the cytotoxicity at 70.5 h is -9.17%.
For `COc1ccc(CN2CCn3cc(CNC(=O)CC4CC4)nc3C2)cc1`, the cytotoxicity at 70.5 h is -8.89%.
The same measure for `Cc1cccc(CN2CCc3ncnc(-c4ccsc4)c3CC2)n1`: -13.6%; for `c1ccc(CN2CCc3ncnc(-c4ccoc4)c3CC2)nc1`: -5.45%; for `Cn1cc(CN2CCn3cc(CNC(=O)CC4CC4)nc3C2)cn1`: -7.17%.
The same measure for `CN(C)C(=O)N1CC2(CCNCC2)c2cc(F)ccc21`: -8.45%; for `c1cnc(N2CCCC3(CCN(CC4CCC4)C3)C2)nc1` (stereo unspecified): -8.21%; for `O=C(c1ccco1)N1CCc2c(COCC3CC3)cncc2C1`: -8.01%.
The same measure for `Cc1ccc(N2C[C@H]3OCC[C@H]3[C@H](C(=O)NCC3CC3)C2)nn1`: -12.5%.
For `CO[C@@H]1CCN(Cc2nccs2)C[C@@H]1Cc1ccccc1`, the cytotoxicity at 70.5 h is -11.2%.
Regarding `O=C(c1ccncc1)N1C[C@@H]2CCN(c3cccnc3)C[C@@H]2C1`, the cytotoxicity at 70.5 h is -16.9%.
Regarding `Cc1cccc(CN2C(=O)C[C@H]3[C@@H]2CCN3Cc2cccs2)n1`, the cytotoxicity at 70.5 h was found to be 0.507%.
The same measure for `Cc1ccc(CN2CC[C@@H]3[C@H]2CCC(=O)N3Cc2ccncc2)s1`: 21%; for `O=C(O)c1cc2c(nc1-c1ccoc1)CCN(CC1CCOC1)CC2` (stereo unspecified): -13.1%; for `Cn1cnc2c1C(COCC1CCOCC1)CN(c1ncccn1)C2` (stereo unspecified): -11.3%.
In the case of `COCC1CN(Cc2ccncc2)Cc2nn(CC3CC3)cc21` (stereo unspecified), the cytotoxicity at 70.5 h was -12.8%.
The same measure for `O=C1[C@@H]2CCN(C3CCOCC3)C[C@@H]2OCCN1Cc1cccnc1`: -16%; for `COCCNC(=O)C1CN(Cc2cccc(C)n2)Cc2ccnn2C1` (stereo unspecified): -5.1%.
Turning to `COCCNC(=O)C1CN(Cc2nccs2)Cc2ccnn2C1` (stereo unspecified), the cytotoxicity at 70.5 h was -6.42%.
As for `Cc1cccc(CN2C(=O)CC[C@@H]3[C@H]2CCN3Cc2cccnc2)n1`, the figure is -0.831%.
On to `Cc1cccc(CN2C(=O)CC[C@@H]3[C@H]2CCN3Cc2nccn2C)n1`, for which the cytotoxicity at 70.5 h was -9.05%.
The same measure for `COCCNC(=O)C1CN(Cc2ccncc2)Cc2ccnn2C1` (stereo unspecified): -14.1%; for `c1cncc(CN2CCO[C@@H]3CN(Cc4ccoc4)CC[C@@H]3C2)c1`: -7.13%.

These data come from ChEMBL document CHEMBL3507680, “University of Dundee, Gates Library screen for HepG2 cell viability”.
